Patent US20020026053A1, “Novel 3-(substituted) -2- indolinones compounds and use thereof as inhibitors of protein kinase activity” (priority 1997, published 2002)

Key:
FLK-1 receptor = assay: FLK-1 Assay (cellular/catalytic ELISA, VEGF-stimulated phosphotyrosine); type: cell-based; design: concentration or dose not given beside the values; settings: protocol P.110
Summary of the method: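 Receptor phosphotyrosine ELISA: Flk-1-expressing NIH3T3 C7#3 cells, starved overnight in 0.1% FBS medium, received compound (1:200 final dilution, 0.5% DMSO) for 2 h at 37 °C, then VEGF. Anti-FLK-1-captured receptor was probed with anti-phosphotyrosine UB40 and peroxidase/ABTS read-out, relative to cells without compound.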

PDGF-R = PDGF-R Assay (cellular ELISA, U1242 cells); type: cell-based; design: concentration or dose not given beside the values; settings: protocol P.119
Summary of the method: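 Cellular ELISA for receptor autophosphorylation: after 2 hr test-compound treatment of serum-free U1242 cells at 37°C, ligand is added for 5–10 min, cells are lysed (HNTG) and receptor captured by specific antibody. Anti-phosphotyrosine plus secondary antibody with ABTS colour read at 410/630 nm, compared with compound-free control cells.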

Structure (SMILES): O=C1Nc2ccc(S(=O)(=O)N3CCOCC3)cc2C1=Cc1cc(F)ccc1F [10737/F04]
- Flk Kinase % Inhibition (P.110) (FLK-1 receptor): 12.2%
- PDGF Kinase % Inhibition (P.119) (PDGF-R): 3.8%

Structure (SMILES): O=C1Nc2ccc(S(=O)(=O)N3CCOCC3)cc2C1=Cc1cccc(F)c1F [10737/F05]
- Flk Kinase % Inhibition (P.110) (FLK-1 receptor): 18.4%
- PDGF Kinase % Inhibition (P.119) (PDGF-R): 1.0%

Structure (SMILES): COc1ccc(C=C2C(=O)Nc3ccc(S(=O)(=O)N4CCOCC4)cc32)cc1F [10737/F06]
- Flk Kinase % Inhibition (P.110) (FLK-1 receptor): 12.3%
- PDGF Kinase % Inhibition (P.119) (PDGF-R): 11.3%

Structure (SMILES): Cc1ccc(C)c(C=C2C(=O)Nc3ccc(S(=O)(=O)N4CCOCC4)cc32)c1 [10737/F07]
- Flk Kinase % Inhibition (P.110) (FLK-1 receptor): 19.1%
- PDGF Kinase % Inhibition (P.119) (PDGF-R): 12.9%

Structure (SMILES): O=C1Nc2ccc(S(=O)(=O)N3CCOCC3)cc2C1=Cc1ccc2ccccc2c1 [10737/F08]
- Flk Kinase % Inhibition (P.110) (FLK-1 receptor): 20.7%
- PDGF Kinase % Inhibition (P.119) (PDGF-R): 9.8%

Structure (SMILES): O=C1Nc2ccc(S(=O)(=O)N3CCOCC3)cc2C1=Cc1ccc(Oc2ccccc2)cc1 [10737/F09]
- Flk Kinase % Inhibition (P.110) (FLK-1 receptor): 15.4%
- PDGF Kinase % Inhibition (P.119) (PDGF-R): 9.8%

Structure (SMILES): CC(C)(C)c1ccc(Oc2cccc(C=C3C(=O)Nc4ccc(S(=O)(=O)N5CCOCC5)cc43)c2)cc1 [10737/F10]
- Flk Kinase % Inhibition (P.110) (FLK-1 receptor): 26.1%
- PDGF Kinase % Inhibition (P.119) (PDGF-R): 11.0%

Structure (SMILES): O=C1Nc2ccc(S(=O)(=O)N3CCOCC3)cc2C1=Cc1cccc(Oc2cccc(C(F)(F)F)c2)c1 [10737/F11]
- Flk Kinase % Inhibition (P.110) (FLK-1 receptor): 31.6%
- PDGF Kinase % Inhibition (P.119) (PDGF-R): 16.5%

Structure (SMILES): CCOc1ccc(C=C2C(=O)Nc3ccc(CCCl)cc32)cc1 [10737/G02]
- Flk Kinase % Inhibition (P.110) (FLK-1 receptor): 8.7%
- PDGF Kinase % Inhibition (P.119) (PDGF-R): −5.8%

Structure (SMILES): Cc1ccc(C=C2C(=O)Nc3ccc(CCCl)cc32)c(C)c1 [10737/G03]
- Flk Kinase % Inhibition (P.110) (FLK-1 receptor): 13.6%
- PDGF Kinase % Inhibition (P.119) (PDGF-R): 21.7%

Structure (SMILES): O=C1Nc2ccc(CCCl)cc2C1=Cc1cc(F)ccc1F [10737/G04]
- Flk Kinase % Inhibition (P.110) (FLK-1 receptor): 12.1%
- PDGF Kinase % Inhibition (P.119) (PDGF-R): 12.1%

Structure (SMILES): O=C1Nc2ccc(CCCl)cc2C1=Cc1cccc(F)c1F [10737/G05]
- Flk Kinase % Inhibition (P.110) (FLK-1 receptor): 16.4%
- PDGF Kinase % Inhibition (P.119) (PDGF-R): 16.1%

Structure (SMILES): COc1ccc(C=C2C(=O)Nc3ccc(CCCl)cc32)cc1F [10737/G06]
- Flk Kinase % Inhibition (P.110) (FLK-1 receptor): 12.8%
- PDGF Kinase % Inhibition (P.119) (PDGF-R): −10.2%

Structure (SMILES): Cc1ccc(C)c(C=C2C(=O)Nc3ccc(CCCl)cc32)c1 [10737/G07]
- Flk Kinase % Inhibition (P.110) (FLK-1 receptor): 20.3%
- PDGF Kinase % Inhibition (P.119) (PDGF-R): 24.1%

Structure (SMILES): O=C1Nc2ccc(CCCl)cc2C1=Cc1ccc2ccccc2c1 [10737/G08]
- Flk Kinase % Inhibition (P.110) (FLK-1 receptor): 16.4%
- PDGF Kinase % Inhibition (P.119) (PDGF-R): 13.7%

Structure (SMILES): O=C1Nc2ccc(CCCl)cc2C1=Cc1ccc(Oc2ccccc2)cc1 [10737/G09]
- Flk Kinase % Inhibition (P.110) (FLK-1 receptor): 15.2%
- PDGF Kinase % Inhibition (P.119) (PDGF-R): 8.2%

Structure (SMILES): CC(C)(C)c1ccc(Oc2cccc(C=C3C(=O)Nc4ccc(CCCl)cc43)c2)cc1 [10737/G10]
- Flk Kinase % Inhibition (P.110) (FLK-1 receptor): 13.3%
- PDGF Kinase % Inhibition (P.119) (PDGF-R): −0.2%

Structure (SMILES): O=C1Nc2ccc(CCCl)cc2C1=Cc1cccc(Oc2cccc(C(F)(F)F)c2)c1 [10737/G11]
- Flk Kinase % Inhibition (P.110) (FLK-1 receptor): 11.7%
- PDGF Kinase % Inhibition (P.119) (PDGF-R): 5.0%

Structure (SMILES): CCOc1ccc(C=C2C(=O)Nc3c(Br)cc(Br)c(C)c32)cc1 [10737/H02]
- Flk Kinase % Inhibition (P.110) (FLK-1 receptor): 3.1%
- PDGF Kinase % Inhibition (P.119) (PDGF-R): −18.1%

Structure (SMILES): Cc1ccc(C=C2C(=O)Nc3c(Br)cc(Br)c(C)c32)c(C)c1 [10737/H03]
- Flk Kinase % Inhibition (P.110) (FLK-1 receptor): 3.2%
- PDGF Kinase % Inhibition (P.119) (PDGF-R): −21.3%

Structure (SMILES): Cc1c(Br)cc(Br)c2c1C(=Cc1cc(F)ccc1F)C(=O)N2 [10737/H04]
- Flk Kinase % Inhibition (P.110) (FLK-1 receptor): 11.6%
- PDGF Kinase % Inhibition (P.119) (PDGF-R): −21.3%

Structure (SMILES): Cc1c(Br)cc(Br)c2c1C(=Cc1cccc(F)c1F)C(=O)N2 [10737/H05]
- Flk Kinase % Inhibition (P.110) (FLK-1 receptor): 9.9%
- PDGF Kinase % Inhibition (P.119) (PDGF-R): −6.2%

Structure (SMILES): COc1ccc(C=C2C(=O)Nc3c(Br)cc(Br)c(C)c32)cc1F [10737/H06]
- Flk Kinase % Inhibition (P.110) (FLK-1 receptor): 5.8%
- PDGF Kinase % Inhibition (P.119) (PDGF-R): −1.8%
